Experimental data published in ChEMBL document CHEMBL1201862, “PubChem BioAssay data set” (2004).
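Compound exposure: 48 hours, 5 concentrations, 96-well plates. The concentration for 50% growth inhibition is given as GI50.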 Active and inactive are the calls of the source. Rule as the data show it: active = GI50 up to about 1.1 µM and inactive = higher. Square brackets hold non-standard residues; d marks the D form. Peptide text beside a SMILES is read from it. * marks the point of attachment. Phe(4-NO2) = N[CH](Cc1ccc([N+](=O)[O-])cc1)C(=O)O; Boc = CC(C)(C)OC(=O)*

Key:
Assay in all cases: inhibition of tumour cell growth, NCI panel, 48 h
[1] = system: A498
[2] = system: MDA-MB-435
[3] = system: SNB-19
[4] = system: ACHN
[5] = system: M14
[6] = system: 786-0
[7] = system: T47D
[8] = system: Hs-578T
[9] = system: HCT-15
[10] = system: BT-549
[11] = system: RXF 393
[12] = system: Malme-3M
[13] = system: MOLT-4
[14] = system: SK-MEL-5
[15] = system: UACC-257
[16] = system: MDA-MB-231
[17] = system: NCI-H522
[18] = system: IGROV-1
[19] = system: NCI-H460

Structure (SMILES) | GI50 [1] | GI50 [2] | GI50 [3] | GI50 [4] | GI50 [5] | GI50 [6] | GI50 [7] | GI50 [8] | GI50 [9] | GI50 [10] | GI50 [11] | GI50 [12] | GI50 [13] | GI50 [14] | GI50 [15] | GI50 [16] | GI50 [17] | GI50 [18] | GI50 [19]
COCC12CCC(OC)C34C5CC6(O)C(OC)CC(OC(C)=O)(C5C6OC(=O)c5ccccc5)C(C(OC)C13)C4N(C)C2 (stereo unspecified) | > 100 µM (inactive) | > 100 µM (inactive) | > 100 µM (inactive) | > 100 µM (inactive) | > 100 µM (inactive) | > 100 µM (inactive) | > 100 µM (inactive) | > 100 µM (inactive) | > 100 µM | > 100 µM (inactive) | > 100 µM (inactive) | > 100 µM (inactive) | > 100 µM (inactive) | > 100 µM (inactive) | > 100 µM (inactive) | > 100 µM (inactive) | > 100 µM (inactive) | > 100 µM (inactive) | > 100 µM (inactive)
COc1cccc2c1C(=O)C(=O)c1c-2oc(=O)c2cc(C)cc(OC)c12 | > 75 µM (inactive) | 14.2 µM (inactive) | 37.8 µM (inactive) | > 75 µM (inactive) | 25.3 µM (inactive) | 26.2 µM (inactive) | 29.9 µM (inactive) | 19.6 µM (inactive) | 13.4 µM | 13.5 µM (inactive) | 19.1 µM (inactive) | 26.9 µM (inactive) | 23 µM (inactive) | 17 µM (inactive) | 14.9 µM (inactive) | 21.3 µM (inactive) | 14.1 µM (inactive) | 16.7 µM (inactive) | > 75 µM (inactive)
O=[N+]([O-])C(=C1NCCN1)/C(Cl)=C(\Cl)Br | > 44.9 µM (inactive) | 29.4 µM (inactive) | > 100 µM (inactive) | 38.2 µM (inactive) | 38.3 µM (inactive) | 17.6 µM (inactive) | 17.5 µM (inactive) | > 100 µM (inactive) | 4.98 µM | 36.1 µM (inactive) | 14.1 µM (inactive) | 36.9 µM (inactive) | 22.3 µM (inactive) | 51.9 µM (inactive) | > 49.8 µM (inactive) | > 60.3 µM (inactive) | 19.1 µM (inactive) | 52.2 µM (inactive) | 51.6 µM (inactive)
Cc1cccc(/N=N/c2c(C)nn(C(=O)CC(=O)Nc3ccccc3)c2C)c1 | > 100 µM (inactive) | > 100 µM (inactive) | > 100 µM (inactive) | > 100 µM (inactive) | > 100 µM (inactive) | > 100 µM (inactive) | > 100 µM (inactive) | > 100 µM (inactive) | > 100 µM | > 100 µM (inactive) | > 100 µM (inactive) | > 100 µM (inactive) | > 100 µM (inactive) | > 100 µM (inactive) | > 10 µM (inactive) | > 100 µM (inactive) | > 100 µM (inactive) | > 100 µM (inactive) | > 100 µM (inactive)
O=C(C[N+]12CN3CN(CN(C3)C1)C2)c1ccc(-c2ccccc2)cc1 | 19.6 µM (inactive) | 36.5 µM (inactive) | 22.6 µM (inactive) | 21.4 µM (inactive) | 21.7 µM (inactive) | 17.7 µM (inactive) | 37.2 µM (inactive) | 32.7 µM (inactive) | 30.1 µM | 29.9 µM (inactive) | 19.1 µM (inactive) | 21.3 µM (inactive) | 16.7 µM (inactive) | 16.4 µM (inactive) | 15.8 µM (inactive) | 16.2 µM (inactive) | 19.3 µM (inactive) | 24.3 µM (inactive) | 13.7 µM (inactive)
COc1cc2c(cc1OC)C(Cl)C(c1ccc(Br)cc1)=C2Cl (stereo unspecified) | 15.2 µM (inactive) | 4.37 µM (inactive) | 16.7 µM (inactive) | 9.46 µM (inactive) | 11.2 µM (inactive) | 3.94 µM (inactive) | 3.23 µM (inactive) | 6.19 µM (inactive) | 8.18 µM | 2.31 µM (inactive) | 11.2 µM (inactive) | 15 µM (inactive) | 4.24 µM (inactive) | 14.4 µM (inactive) | 15.1 µM (inactive) | 9.64 µM (inactive) | 4.42 µM (inactive) | 11.9 µM (inactive) | 8.32 µM (inactive)
O=C(Oc1c(I)ccccc1=O)c1ccc([N+](=O)[O-])cc1 | 0.409 µM (active) | 19.4 µM (inactive) | 20.4 µM (inactive) | 24.8 µM (inactive) | 26.2 µM (inactive) | 26.9 µM (inactive) | 0.0785 µM (active) | 24.8 µM (inactive) | 12.9 µM | 18.6 µM (inactive) | 3.08 µM (inactive) | 14.6 µM (inactive) | – | 0.51 µM (active) | 17 µM (inactive) | 23.3 µM (inactive) | 17.7 µM (inactive) | 14.9 µM (inactive) | 11.4 µM (inactive)
CNC(=O)CCC(NC(=O)OC(C)(C)C)C(=O)NC(Cc1ccc([N+](=O)[O-])cc1)C(=O)NCC(=O)NC (stereo unspecified) (Boc-Glu(NHMe)-[Phe(4-NO2)]-Gly-NHMe; configuration not given here) | 68.2 µM (inactive) | > 100 µM (inactive) | > 100 µM (inactive) | > 100 µM (inactive) | > 100 µM (inactive) | > 100 µM (inactive) | > 100 µM (inactive) | > 100 µM (inactive) | > 100 µM | > 100 µM (inactive) | > 100 µM (inactive) | > 100 µM (inactive) | > 100 µM (inactive) | > 100 µM (inactive) | – | > 100 µM (inactive) | > 100 µM (inactive) | > 100 µM (inactive) | > 100 µM (inactive)
C=CCn1c(S)nnc1C12CC3CC(CC(C3)C1)C2 | > 100 µM (inactive) | 48.9 µM (inactive) | > 100 µM (inactive) | 54.3 µM (inactive) | 61 µM (inactive) | > 100 µM (inactive) | 32.8 µM (inactive) | > 100 µM (inactive) | 44.3 µM | 50.6 µM (inactive) | > 100 µM (inactive) | > 100 µM (inactive) | 20.9 µM (inactive) | – | 52.2 µM (inactive) | > 100 µM (inactive) | 25 µM (inactive) | > 100 µM (inactive) | 53.5 µM (inactive)
CC1OC(OC2C(O[C@H]3CC[C@@]4(C)C(=CC[C@H]5[C@@H]6C[C@@H]7O[C@]8(CC[C@@H](C)CO8)[C@@H](C)[C@@H]7[C@@]6(C)CC[C@@H]54)C3)OC(CO)C(O)C2OC2OC(CO)C(O)C(O)C2O)C(O)C(O)C1O (stereo partly specified) | 1.44 µM (inactive) | 1.81 µM (inactive) | 1.87 µM (inactive) | 1.8 µM (inactive) | 2.35 µM (inactive) | 1.77 µM (inactive) | 2.31 µM (inactive) | 1.73 µM (inactive) | 1.95 µM | 2.07 µM (inactive) | 2.17 µM (inactive) | 1.69 µM (inactive) | – | 2.04 µM (inactive) | 1.86 µM (inactive) | 1.47 µM (inactive) | 1.86 µM (inactive) | 1.76 µM (inactive) | 2.22 µM (inactive)
Cc1cc(Cl)cc2c1NC(=O)/C2=N\Nc1ccccc1[N+](=O)[O-] | > 100 µM (inactive) | > 100 µM (inactive) | > 100 µM (inactive) | > 100 µM (inactive) | > 100 µM (inactive) | 54.6 µM (inactive) | > 100 µM (inactive) | 35.3 µM (inactive) | > 100 µM | > 100 µM (inactive) | > 100 µM (inactive) | – | 74.3 µM (inactive) | > 100 µM (inactive) | > 100 µM (inactive) | 66.8 µM (inactive) | > 100 µM (inactive) | 19.1 µM (inactive) | > 100 µM (inactive)
COc1ccc(NC(C)=O)c(C(O)CCNC(C)=O)c1 (stereo unspecified) | 31.5 µM (inactive) | > 100 µM (inactive) | > 100 µM (inactive) | > 100 µM (inactive) | > 100 µM (inactive) | > 100 µM (inactive) | > 100 µM (inactive) | > 100 µM (inactive) | > 100 µM | > 100 µM (inactive) | > 100 µM (inactive) | – | > 100 µM (inactive) | > 100 µM (inactive) | > 100 µM (inactive) | > 100 µM (inactive) | > 100 µM (inactive) | > 100 µM (inactive) | > 100 µM (inactive)
O=c1c2ccccc2c2ccccc2c(=O)n1-c1cc2c3ccccc3ccc2c2ccccc12 | > 100 µM (inactive) | > 100 µM (inactive) | > 100 µM (inactive) | > 100 µM (inactive) | > 100 µM (inactive) | > 100 µM (inactive) | > 100 µM (inactive) | > 100 µM (inactive) | > 100 µM | > 100 µM (inactive) | > 100 µM (inactive) | > 100 µM (inactive) | – | > 100 µM (inactive) | > 100 µM (inactive) | > 100 µM (inactive) | > 100 µM (inactive) | > 100 µM (inactive) | > 100 µM (inactive)
O=C(Nc1sccc1S(=O)(=O)c1ccc(Cl)cc1)c1ccc(F)cc1F | 24.2 µM (inactive) | > 100 µM (inactive) | 21.9 µM (inactive) | 32.1 µM (inactive) | > 100 µM (inactive) | 18.7 µM (inactive) | 31.8 µM (inactive) | 26.2 µM (inactive) | 66.4 µM | 20.8 µM (inactive) | 21.7 µM (inactive) | 31.9 µM (inactive) | 20.4 µM (inactive) | 49.4 µM (inactive) | > 100 µM (inactive) | 20.7 µM (inactive) | 20.3 µM (inactive) | 30.6 µM (inactive) | –
CCCCn1c(C)c(C(=O)OCC)s/c1=N/Nc1nc2ccccc2nc1-c1ccccc1 | 58.5 µM (inactive) | > 100 µM (inactive) | 40.6 µM (inactive) | 78.3 µM (inactive) | > 100 µM (inactive) | 49.1 µM (inactive) | 52.1 µM (inactive) | 26.2 µM (inactive) | > 100 µM | > 100 µM (inactive) | > 100 µM (inactive) | – | > 100 µM (inactive) | 46.8 µM (inactive) | > 100 µM (inactive) | 39.3 µM (inactive) | 41.2 µM (inactive) | 75.7 µM (inactive) | > 100 µM (inactive)
